Measurements: the NIST ThermoML archive (doi:10.1016/j.jct.2012.03.031)

Experiment: molar heat capacity at constant pressure
Conditions: 101.33 kPa

CCCCc1ccc(C(=O)Oc2ccc(C#N)c(F)c2)cc1 [4-cyano-3-fluorophenyl 4-butylbenzoate]
Conditions | molar heat capacity at constant pressure [J/K/mol]
4.918 K, Crystal 1, Small (less than 1 g) adiabatic calorimetry | 1.032
5 K, Crystal 1, Vacuum adiabatic calorimetry | 1.08
5 K, Crystal 2, Vacuum adiabatic calorimetry | 1.44
5.052 K, Crystal 2, Small (less than 1 g) adiabatic calorimetry | 1.482
5.07 K, Crystal 1, Small (less than 1 g) adiabatic calorimetry | 1.127
5.575 K, Crystal 1, Small (less than 1 g) adiabatic calorimetry | 1.448
5.722 K, Crystal 2, Small (less than 1 g) adiabatic calorimetry | 2.06
5.747 K, Crystal 1, Small (less than 1 g) adiabatic calorimetry | 1.591
6.284 K, Crystal 1, Small (less than 1 g) adiabatic calorimetry | 2.011
6.538 K, Crystal 2, Small (less than 1 g) adiabatic calorimetry | 2.901
6.573 K, Crystal 1, Small (less than 1 g) adiabatic calorimetry | 2.293
7.108 K, Crystal 1, Small (less than 1 g) adiabatic calorimetry | 2.802
7.413 K, Crystal 2, Small (less than 1 g) adiabatic calorimetry | 3.946
7.456 K, Crystal 1, Small (less than 1 g) adiabatic calorimetry | 3.2
8.006 K, Crystal 1, Small (less than 1 g) adiabatic calorimetry | 3.815
8.284 K, Crystal 2, Small (less than 1 g) adiabatic calorimetry | 5.139
8.384 K, Crystal 1, Small (less than 1 g) adiabatic calorimetry | 4.319
8.948 K, Crystal 1, Small (less than 1 g) adiabatic calorimetry | 5.034
9.21 K, Crystal 2, Small (less than 1 g) adiabatic calorimetry | 6.549
9.353 K, Crystal 1, Small (less than 1 g) adiabatic calorimetry | 5.638
9.931 K, Crystal 1, Small (less than 1 g) adiabatic calorimetry | 6.451
10 K, Crystal 1, Vacuum adiabatic calorimetry | 6.56
10 K, Crystal 2, Vacuum adiabatic calorimetry | 7.87
10.23 K, Crystal 2, Small (less than 1 g) adiabatic calorimetry | 8.254
10.31 K, Crystal 1, Small (less than 1 g) adiabatic calorimetry | 7.064
10.88 K, Crystal 1, Small (less than 1 g) adiabatic calorimetry | 7.93
11.24 K, Crystal 2, Small (less than 1 g) adiabatic calorimetry | 10.07
11.26 K, Crystal 1, Small (less than 1 g) adiabatic calorimetry | 8.608
11.81 K, Crystal 1, Small (less than 1 g) adiabatic calorimetry | 9.492
12.23 K, Crystal 1, Small (less than 1 g) adiabatic calorimetry | 10.25
12.28 K, Crystal 2, Small (less than 1 g) adiabatic calorimetry | 12.04
12.81 K, Crystal 1, Small (less than 1 g) adiabatic calorimetry | 11.22
13.24 K, Crystal 1, Small (less than 1 g) adiabatic calorimetry | 12.07
13.39 K, Crystal 2, Small (less than 1 g) adiabatic calorimetry | 14.28
13.89 K, Crystal 1, Small (less than 1 g) adiabatic calorimetry | 13.26
14.32 K, Crystal 1, Small (less than 1 g) adiabatic calorimetry | 14.11
14.71 K, Crystal 2, Small (less than 1 g) adiabatic calorimetry | 17
15.07 K, Crystal 1, Small (less than 1 g) adiabatic calorimetry | 15.49
15.47 K, Crystal 1, Small (less than 1 g) adiabatic calorimetry | 16.32
16.2 K, Crystal 2, Small (less than 1 g) adiabatic calorimetry | 20.27
16.43 K, Crystal 1, Small (less than 1 g) adiabatic calorimetry | 18.21
16.76 K, Crystal 1, Small (less than 1 g) adiabatic calorimetry | 18.95
17.73 K, Crystal 2, Small (less than 1 g) adiabatic calorimetry | 23.69
18.05 K, Crystal 1, Small (less than 1 g) adiabatic calorimetry | 21.6
18.4 K, Crystal 1, Small (less than 1 g) adiabatic calorimetry | 22.4
19.39 K, Crystal 2, Small (less than 1 g) adiabatic calorimetry | 27.53
19.84 K, Crystal 1, Small (less than 1 g) adiabatic calorimetry | 25.4
20 K, Crystal 1, Vacuum adiabatic calorimetry | 25.75
20 K, Crystal 2, Vacuum adiabatic calorimetry | 28.93
20.07 K, Crystal 1, Small (less than 1 g) adiabatic calorimetry | 25.94
21.11 K, Crystal 2, Small (less than 1 g) adiabatic calorimetry | 31.48
21.53 K, Crystal 1, Small (less than 1 g) adiabatic calorimetry | 29.12
21.58 K, Crystal 1, Small (less than 1 g) adiabatic calorimetry | 29.19
22.83 K, Crystal 2, Small (less than 1 g) adiabatic calorimetry | 35.46
23.05 K, Crystal 1, Small (less than 1 g) adiabatic calorimetry | 32.44
23.28 K, Crystal 1, Small (less than 1 g) adiabatic calorimetry | 32.87
24.53 K, Crystal 2, Small (less than 1 g) adiabatic calorimetry | 39.3
24.67 K, Crystal 1, Small (less than 1 g) adiabatic calorimetry | 35.93
24.93 K, Crystal 1, Small (less than 1 g) adiabatic calorimetry | 36.45
26.2 K, Crystal 2, Small (less than 1 g) adiabatic calorimetry | 43.02
26.34 K, Crystal 1, Small (less than 1 g) adiabatic calorimetry | 39.52
26.69 K, Crystal 1, Small (less than 1 g) adiabatic calorimetry | 40.25
27.89 K, Crystal 2, Small (less than 1 g) adiabatic calorimetry | 47.05
27.96 K, Crystal 1, Small (less than 1 g) adiabatic calorimetry | 43.27
28.5 K, Crystal 1, Small (less than 1 g) adiabatic calorimetry | 44.43
29.49 K, Crystal 1, Small (less than 1 g) adiabatic calorimetry | 46.73
29.58 K, Crystal 2, Small (less than 1 g) adiabatic calorimetry | 50.91
30 K, Crystal 1, Vacuum adiabatic calorimetry | 47.75
30 K, Crystal 2, Vacuum adiabatic calorimetry | 51.82
30.38 K, Crystal 1, Small (less than 1 g) adiabatic calorimetry | 48.59
30.97 K, Crystal 1, Small (less than 1 g) adiabatic calorimetry | 49.89
31.27 K, Crystal 2, Small (less than 1 g) adiabatic calorimetry | 54.58
32.25 K, Crystal 1, Small (less than 1 g) adiabatic calorimetry | 52.59
32.3 K, Crystal 1, Small (less than 1 g) adiabatic calorimetry | 52.61
32.73 K, Crystal 2, Small (less than 1 g) adiabatic calorimetry | 57.73
33.42 K, Crystal 1, Small (less than 1 g) adiabatic calorimetry | 55.02
34.08 K, Crystal 2, Small (less than 1 g) adiabatic calorimetry | 60.65
34.18 K, Crystal 1, Small (less than 1 g) adiabatic calorimetry | 56.62
34.66 K, Crystal 1, Small (less than 1 g) adiabatic calorimetry | 57.7
35.58 K, Crystal 2, Small (less than 1 g) adiabatic calorimetry | 63.81
35.96 K, Crystal 1, Small (less than 1 g) adiabatic calorimetry | 60.42
36.15 K, Crystal 1, Small (less than 1 g) adiabatic calorimetry | 60.78
37.11 K, Crystal 2, Small (less than 1 g) adiabatic calorimetry | 67
37.29 K, Crystal 1, Small (less than 1 g) adiabatic calorimetry | 63.17
38.18 K, Crystal 1, Small (less than 1 g) adiabatic calorimetry | 64.88
38.66 K, Crystal 1, Small (less than 1 g) adiabatic calorimetry | 65.91
38.66 K, Crystal 2, Small (less than 1 g) adiabatic calorimetry | 70.19
40 K, Crystal 1, Vacuum adiabatic calorimetry | 68.45
40 K, Crystal 2, Vacuum adiabatic calorimetry | 72.67
40.05 K, Crystal 1, Small (less than 1 g) adiabatic calorimetry | 68.62
40.1 K, Crystal 2, Small (less than 1 g) adiabatic calorimetry | 72.86
40.24 K, Crystal 1, Small (less than 1 g) adiabatic calorimetry | 68.92
41.44 K, Crystal 2, Small (less than 1 g) adiabatic calorimetry | 75.41
41.46 K, Crystal 1, Small (less than 1 g) adiabatic calorimetry | 71.35
42.21 K, Crystal 1, Small (less than 1 g) adiabatic calorimetry | 72.67
42.84 K, Crystal 2, Small (less than 1 g) adiabatic calorimetry | 78.05
42.89 K, Crystal 1, Small (less than 1 g) adiabatic calorimetry | 74.07
44.12 K, Crystal 1, Small (less than 1 g) adiabatic calorimetry | 76.27
44.27 K, Crystal 2, Small (less than 1 g) adiabatic calorimetry | 80.76
44.33 K, Crystal 1, Small (less than 1 g) adiabatic calorimetry | 76.76
45.76 K, Crystal 2, Small (less than 1 g) adiabatic calorimetry | 83.54
45.77 K, Crystal 1, Small (less than 1 g) adiabatic calorimetry | 79.44
46.11 K, Crystal 1, Small (less than 1 g) adiabatic calorimetry | 79.97
47.22 K, Crystal 1, Small (less than 1 g) adiabatic calorimetry | 82.08
47.31 K, Crystal 2, Small (less than 1 g) adiabatic calorimetry | 86.36
48.17 K, Crystal 1, Small (less than 1 g) adiabatic calorimetry | 83.7
48.67 K, Crystal 1, Small (less than 1 g) adiabatic calorimetry | 84.74
48.88 K, Crystal 2, Small (less than 1 g) adiabatic calorimetry | 89.17
50 K, Crystal 1, Vacuum adiabatic calorimetry | 86.93
50 K, Crystal 2, Vacuum adiabatic calorimetry | 91.14
50.13 K, Crystal 1, Small (less than 1 g) adiabatic calorimetry | 87.32
50.27 K, Crystal 1, Small (less than 1 g) adiabatic calorimetry | 87.41
50.47 K, Crystal 2, Small (less than 1 g) adiabatic calorimetry | 91.97
51.6 K, Crystal 1, Small (less than 1 g) adiabatic calorimetry | 89.81
52.07 K, Crystal 2, Small (less than 1 g) adiabatic calorimetry | 94.74
52.41 K, Crystal 1, Small (less than 1 g) adiabatic calorimetry | 91.07
53.06 K, Crystal 1, Small (less than 1 g) adiabatic calorimetry | 92.27
53.69 K, Crystal 2, Small (less than 1 g) adiabatic calorimetry | 97.39
54.53 K, Crystal 1, Small (less than 1 g) adiabatic calorimetry | 94.7
54.59 K, Crystal 1, Small (less than 1 g) adiabatic calorimetry | 94.68
55.31 K, Crystal 2, Small (less than 1 g) adiabatic calorimetry | 100.11
56.01 K, Crystal 1, Small (less than 1 g) adiabatic calorimetry | 97.07
56.79 K, Crystal 1, Small (less than 1 g) adiabatic calorimetry | 98.21
56.94 K, Crystal 2, Small (less than 1 g) adiabatic calorimetry | 102.73
57.48 K, Crystal 1, Small (less than 1 g) adiabatic calorimetry | 99.44
58.59 K, Crystal 2, Small (less than 1 g) adiabatic calorimetry | 105.37
58.96 K, Crystal 1, Small (less than 1 g) adiabatic calorimetry | 101.75
58.97 K, Crystal 1, Small (less than 1 g) adiabatic calorimetry | 101.63
60 K, Crystal 1, Vacuum adiabatic calorimetry | 103.22
60 K, Crystal 2, Vacuum adiabatic calorimetry | 107.66
60.24 K, Crystal 2, Small (less than 1 g) adiabatic calorimetry | 108.04
60.44 K, Crystal 1, Small (less than 1 g) adiabatic calorimetry | 104.07
61.09 K, Crystal 1, Small (less than 1 g) adiabatic calorimetry | 104.91
61.9 K, Crystal 2, Small (less than 1 g) adiabatic calorimetry | 110.62
